# Test results as given in patent US20060122181A1, “Heteroaromatic pentacyclic compound and medicinal use thereof” (Japan Tobacco Inc., priority 2003, published 2006).
# What was measured:
# [1] = molecular target: T1, Recombinant human protein tyrosine phosphatase 1B (Homo sapiens, UniProt P18031); assay: Protein tyrosine phosphatase 1B inhibitory activity (malachite green, phosphorylated insulin receptor peptide substrate); assay type: biochemical; details: recombinant human PTP1B, 60 min room temperature, absorbance 650 nm
# T1 construct: purchased UBI
# T1 sequence (P18031 1-435): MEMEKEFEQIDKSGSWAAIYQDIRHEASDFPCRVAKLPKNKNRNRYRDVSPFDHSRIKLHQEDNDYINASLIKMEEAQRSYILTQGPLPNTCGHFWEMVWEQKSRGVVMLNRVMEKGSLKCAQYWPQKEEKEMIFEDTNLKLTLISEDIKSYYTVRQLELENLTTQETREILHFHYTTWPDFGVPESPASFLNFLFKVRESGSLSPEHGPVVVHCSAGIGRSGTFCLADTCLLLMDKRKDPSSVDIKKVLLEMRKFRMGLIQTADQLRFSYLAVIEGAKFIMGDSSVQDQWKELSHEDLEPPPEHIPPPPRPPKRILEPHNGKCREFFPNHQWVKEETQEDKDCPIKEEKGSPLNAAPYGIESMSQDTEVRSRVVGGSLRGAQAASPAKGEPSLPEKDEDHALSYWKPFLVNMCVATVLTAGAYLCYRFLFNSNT
# Procedure: Preparation of Assay Buffer:
# A 50 mM Tris-HCl buffer (pH 7.5), 50 mM NaCl and 3 mM dithiothreitol (DTT) were prepared.
# […] 0.1, 0.3, 1, 3 and 10 μM of the test compound were prepared and diluted with the above-mentioned assay buffer to the final dimethyl sulfoxide (DMSO) concentration of not more than 1%. As the control, the assay buffer was used.
# Preparation of Substrate:
# Recombinant human protein tyrosine phosphatase 1B (manufactured by UBI) was diluted with the above-mentioned assay buffer (1.2 ng/25 μl).
# The sample (10 μl) prepared as mentioned above and a substrate (25 μl) were successively added to a 96 well plate, and the enzyme (25 μl) prepared as mentioned above was added and mixed. The mixture was incubated at room temperature for 60 min and a malachite green (120 μl, Biomol), which is a color reagent, was added. The mixture was further incubated at room temperature for 20 min to allow for color development. An absorbance at 650 nm was measured on a plate reader based on which the protein tyrosine phosphatase 1B inhibitory activity of the test compound was evaluated.
# [2] = tested on: male ob/ob mice; assay: Hypoglycemic activity in ob/ob mice; assay type: in vivo; details: fasting, relative to control group
# Procedure: A 0.5% methyl cellulose suspension of the test compound was orally administered to 6- to 9-week-old male ob/ob mice grouped according to the glucose level. Only a 0.5% methyl cellulose solution was administered to a control group.
# Blood was drawn under fasting condition, which condition was started simultaneously with the administration by means of removing the feed. The blood was drawn under anesthesia from the orbital vein 3 hours after the administration. The blood thus taken was centrifuged and the glucose level was measured from the obtained plasma by the hexokinase method (glucose measurement kit). For evaluation, the percentage (%) of decrease in the glucose level of the test compound-administered group relative to the control group is shown.
SMILES,IC50 [1] [µM],blood glucose decreasing rate (%) 3 hours later ([2]; dose 1 mg/kg oral) [%],blood glucose decreasing rate (%) 3 hours later ([2]; dose 3 mg/kg oral) [%],melting point [°C]
CN(Cc1ccc([C@H]2CC[C@H](C)CC2)cc1)c1ccc(-c2csc(CN(CC(=O)O)Cc3ccccn3)n2)cc1 [Example 3-52],0.54,28,–,–
CCCC(CCC)c1ccc(CN(C)c2ccc(-c3csc(CN(CC(=O)O)Cc4ccccc4)n3)cc2)cc1 [Example 3-36],0.1,–,52,–
CCCC(CCC)c1ccc(CN(C)c2ccc(-c3csc(CN(CC(=O)O)Cc4ccccn4)n3)cc2)cc1 [Example 3-53],0.28,20,–,117 to 120
CCCC(CCC)c1ccc(COc2ccc(C)cc2-c2csc(CN3Cc4ccccc4CC3C(=O)O)n2)cc1 (stereo not drawn) [Example 3-25],0.14,20,–,149 to 152
CCCC(CCC)c1ccc(CN(C)c2ccc(-c3csc([C@@H]4Cc5ccccc5CN4CC(=O)[O-])n3)cc2)cc1.[Na+] [Example 3-64],0.21,13,–,186 to 187
"CCC(CC)c1ccc(N(Cc2ccc(-c3csc(COc4cncc(C(=O)O)c4)n3)cc2)C(C)C)cc1 [Example 1-1, 5-{4-[4-({[4-(1-Ethylpropyl)phenyl]isopropylamino}methyl)-phenyl]thiazol-2-ylmethoxy}nicotinic acid]",0.28,45,–,–
CCCC(CCC)c1ccc(OCc2ccc(-c3csc(CN4Cc5ccccc5CC4C(=O)O)n3)cc2)cc1 (stereo not drawn) [Example 1-45],0.066,32,–,117 to 126
CCCC(CCC)c1ccc(COc2ccc(-c3csc(CN(CC(=O)O)Cc4ccccc4)n3)cc2)cc1 [Example 3-10],0.2,18,–,145 to 148
CN(Cc1ccc(C2CCC(C)(C)CC2)cc1)c1ccc(-c2csc(CN(C)S(=O)(=O)c3ccc(C(=O)O)cc3)n2)cc1 [Example 3-98],0.16,–,31,218 to 221
CCC(CC)c1ccc(N(Cc2ccc(-c3csc(CN(CC(=O)O)CC(=O)Nc4ccc(C(C)C)cc4)n3)cc2)C(C)C)cc1 [Example 1-78],0.18,–,24,–
CN(Cc1ccc(C2CCCCC2)cc1)c1ccc(-c2csc(CN(C)S(=O)(=O)c3ccc(C(=O)O)cc3)n2)cc1 [Example 3-100],0.15,–,20,193 to 196
CN(Cc1ccc(C2CCCCC2)cc1)c1ccc(-c2csc(CN(CC(=O)O)Cc3ccccc3)n2)cc1 [Example 3-29],0.41,–,41,148 to 150
CN(Cc1ccc(C(=O)O)cc1)c1nc(-c2ccc(COc3ccc(C4CCCCC4)cc3)cc2)cs1 [Example 1-37],0.14,–,26,209 to 211
CN(Cc1ccc([C@H]2CC[C@H](C)CC2)cc1)c1ccc(-c2csc(CN(CC(=O)O)Cc3ccccc3)n2)cc1 [Example 3-32],0.18,14,–,157 to 159
CCCC(CCC)c1ccc(N(C)Cc2ccc(-c3csc(CN(CC(=O)O)Cc4ccccc4)n3)cc2)cc1 [Example 1-25],0.13,25,–,138
CCCC(CCC)c1ccc(COc2ccc(C)cc2-c2csc(CN(CC(=O)O)Cc3ccccn3)n2)cc1 [Example 3-21],0.45,27,–,118 to 120
CCCC(CCC)c1ccc(CN(C)c2ccc(-c3csc(CN(C)[C@@H](Cc4ccccc4)C(=O)O)n3)cc2)cc1 [Example 3-86],0.2,16,–,143

SMILES,IC50 [1] [µM],blood glucose decreasing rate (%) 3 hours later ([2]; dose 1 mg/kg oral) [%],blood glucose decreasing rate (%) 3 hours later ([2]; dose 3 mg/kg oral) [%],melting point [°C]
CN(Cc1ccc(C2CCCCC2)cc1)c1ccc(-c2csc(CNC(Cc3ccccc3)C(=O)O)n2)cc1 (stereo not drawn) [Example 3-76],0.48,33,–,185 to 190
CN(Cc1ccc([C@H]2CC[C@H](C)CC2)cc1)c1ccc(-c2csc(COC(=O)N(CC(=O)O)Cc3ccccc3)n2)cc1 [Example 3-108],0.16,29,–,–
CCCC(CCC)c1ccc(CN(C)c2ccc(-c3csc(CN4Cc5ccccc5CC4C(=O)O)n3)cc2)cc1 (stereo not drawn) [Example 3-73],0.2,14,–,176 to 179
CN(Cc1ccc(C2CCCCC2)cc1)c1ccc(-c2csc(CN3CCC(C(=O)O)(c4ccccc4)CC3)n2)cc1 [Example 3-67],0.23,–,20,220 to 222
CCCC(CCC)c1ccc(N(C)Cc2ccc(-c3csc(N(C)Cc4ccc(C(=O)O)cc4)n3)cc2)cc1 [Example 1-19],0.1,35,–,110 to 113
CCCC(CCC)c1ccc(OCc2ccc(-c3csc(COc4cncc(C(=O)O)c4)n3)cc2)cc1 [Example 1-48],0.23,46,–,165 to 171
CCCC(CCC)c1ccc(OCc2ccc(-c3csc(CN(CC(=O)O)Cc4ccccc4)n3)cc2)cc1 [Example 1-44],0.22,20,–,138 to 142
CCCC(CCC)c1ccc(OCc2ccc(-c3csc(N(C)Cc4ccc(C(=O)O)cc4)n3)cc2)cc1 [Example 1-39],0.19,32,–,156 to 158
CCCC(CCC)c1ccc(COc2ccc(C)cc2-c2csc(CN(CC(=O)O)Cc3ccccc3)n2)cc1 [Example 3-9],0.17,18,–,126 to 128
CN(C[C@H]1CC[C@H](c2ccc(Cl)cc2)CC1)c1ccc(-c2csc(CN(CC(=O)O)Cc3ccccc3)n2)cc1 [Example 3-34],0.16,–,–,180 to 182
CCCC(CCC)c1ccc(COc2ccc(-c3csc(CN4CCN(c5cccc(C(=O)O)c5)CC4)n3)cc2)cc1 [Example 1-156],0.19,–,–,153 to 154
CC(C)CCN(CC(=O)O)Cc1nc(-c2ccc(N(C)Cc3ccc([C@H]4CC[C@H](C)CC4)cc3)cc2)cs1 [Example 3-92],0.18,26,–,166 to 167
CCC(CC)c1ccc(COc2ccc(-c3csc(CN(CC(=O)O)Cc4ccc(C(C)C)cc4)n3)cc2)cc1 [Example 3-15],0.27,25,–,138 to 140
CC(C)Cc1ccc(CN(C)c2ccc(-c3csc(CN(CC(=O)O)C(=O)Cc4ccc(C(C)C)cc4)n3)cc2)cc1 [Example 3-58],0.39,23,–,124 to 126
CCCC(CCC)c1ccc(N(C)Cc2ccc(-c3csc(CN(C)S(=O)(=O)c4ccc(C(=O)O)cc4)n3)cc2)cc1 [Example 1-15],0.13,35,–,–
CCCC(CCC)c1ccc(OCc2ccc(-c3csc(CN(CC(=O)O)Cc4nc5ccccc5s4)c3)cc2)cc1 [Example 4-88],< 0.1,–,–,150.9 to 152.8
